{
  "source": "paper PMC4729491",
  "about": "“The Cellular Thioredoxin-1/Thioredoxin Reductase-1 Driven Oxidoreduction Represents a Chemotherapeutic Target for HIV-1 Entry Inhibition” (PLoS ONE, 2016)",
  "key": {"HIV-1(BaL)": {"tested_on": "HIV-1(BaL)", "test": "Antiviral activity in PHA-stimulated PBMCs (p24 ELISA), HIV-1(BaL)", "type": "cell-based", "conditions": "PHA-stimulated PBMCs; mean ± SD; read-out: EC50 HIV-1 (BAL)", "protocol": "(§1) To test the antiviral activity in fresh, PHA-stimulated PBMCs, an experiment was performed as previously described. Briefly, the cells were preincubated with HIV-1(IIIB), HIV-1(BaL) or HIV-1(HE) for 1 h at 37°C, using a viral load of 1000 x CCID50 per ml. Then, cell suspensions containing virus and 2 x 10^5 PBMCs were seeded in a 96-well microtiter plate and a serial dilution of compound was added, in a total volume of 200 μl. After 4 days, the cells were passaged and fresh culture medium, containing IL-2 and compound, was added. Three days later, cellular supernatants were harvested and viral replication in the presence of the compounds was quantified using a p24 enzyme-linked immunosorbent assay (ELISA) (Perkin Elmer, Brussels, Belgium). The half maximal effective concentration (EC50) was defined as the compound concentration that is required to block viral replication by 50%."}, "HIV-1(IIIB)": {"tested_on": "HIV-1(IIIB)", "test": "Antiviral activity in PHA-stimulated PBMCs (p24 ELISA), HIV-1(IIIB)", "type": "cell-based", "conditions": "PHA-stimulated PBMCs; mean ± SD; read-out: EC50 HIV-1 (IIIB)", "protocol": "as §1"}, "HIV-1(HE)": {"tested_on": "HIV-1(HE)", "test": "Antiviral activity in PHA-stimulated PBMCs (p24 ELISA), HIV-1(HE)", "type": "cell-based", "conditions": "PHA-stimulated PBMCs; mean ± SD; read-out: EC50 HIV-1 (HE)", "protocol": "as §1"}, "[1]": {"conditions": "previously known structural properties ref 20-22; cited from earlier work"}},
  "data": [
    {"substance": "6-(butyltelluro)-6-deoxy-β-cyclodextrin [TE-2]", "values": [
      {"measurement": "EC50", "setting": "HIV-1(BaL)", "value": "≥ 25", "unit": "µM"},
      {"measurement": "EC50", "setting": "HIV-1(IIIB)", "value": "15 ± 7", "unit": "µM"},
      {"measurement": "EC50", "setting": "HIV-1(HE)", "value": "6.6 ± 4.2", "unit": "µM"},
      {"measurement": "Hydrophobicity", "setting": "[1]", "value": "Hydrophilic"}
    ]}
  ]
}
